Source: patent US20140275166A1, “SPINTRAPS AND SPIN LABELS AND THEIR HYDROXYLAMINES FOR PERI- AND POST-MENOPAUSAL SYNDROME” (priority 2013, published 2014)
Like-named read-outs stand apart in the source and are kept apart here.

How the values were obtained:
[1] = test system: acute ischemic stroke; conditions: animal models versus humans; cited from earlier work
[2] = test system: SHR; conditions: cited from earlier work
[3] = test system: arterioles from intact and OVE females; conditions: cited from earlier work
[4] = test system: perimenopausal symptoms, including hot flashes, sweating, and discomfort; test: Oral treatment of peri- and post-menopausal symptoms in one patient; assay type: in vivo, human
Experimental: The reduced form of TEMPOL (TEMPOL-H) or equivalent pharmacologically-active spin label/spintrap is prepared by mixing together 2 grams of TEMPOL or a pharmacologically effective amount of another spin-label or spin trap such as methynitrosopropane, 20 grams of ascorbic acid or other reducing compound in 100 ml of distilled water. The formulation is used as is. The solution is slightly-bitter. The formulation can be administered diluted in a suitable liquid such as juice, tea, or coffee. An equivalent dry form as 10 mg of tempol mixed with 100 mg of ascorbic acid or equivalent reducing substance can be easily prepared in capsule or tablet form.
One-half ml of the above solution, comprising 10 mg TEMPOL plus 100 mg ascorbic acid, was administered orally 1-3 times a day to a 50 kg person with perimenopausal symptoms, including hot flashes, sweating, and discomfort.
Parental modes of administration such as intravenous, intramuscular, subcutaneous, intraperitoneal, transrectal and so forth are also possible, as are topical modes of administration such as in lotions, creams, gels, and topically-compatible suspensions and solutions.

[5] = test system: fibrocystic disease of breast; conditions: in vivo; cited from earlier work
[6] = 10 mg TEMPOL plus 100 mg ascorbic acid orally 1-3 times a day, 50 kg person

## CC(C)(C)[N+]([O-])=Cc1ccc(S(=O)(=O)[O-])cc1S(=O)(=O)[O-].[Na+].[Na+] [NXY-059, disulfonyl PBN]
[1]
  neuroprotective efficacy: effective in animal models, but not in humans

## CC1(C)CC(O)CC(C)(C)N1[O] [TEMPOL, 4-hydroxy-TEMPO]
[2]; male SHR and female SHR given tempol for the first 15 weeks of life
  antihypertensive response: had an antihypertensive response
[2]; postmenopausal female SHR
  antihypertensive response: no response was observed
[2]; young female versus young male SHR, and after menopause
  BP lowering by sex and age: more effective in lowering the BP of young female than young male SHR and became less effective after menopause
[3]
  flow-induced increases in NO and subsequent vasodilation: blunted flow-induced increases in NO and subsequent vasodilation
[4]; Tempol itself, without reducing agent, at the same doses
  efficacy on perimenopausal symptoms: effective at the same doses

## CC(C)(C)[N+]([O-])=Cc1ccccc1 [Phenylbutylnitrone, 1-alpha-phenyl-tert-butyl nitrone]
[4]; 100 mg dose per day
  efficacy on perimenopausal symptoms: also effective

## CC1(C)CC(O)CC(C)(C)N1O [TEMPOL-H, the hydroxylamine reduced form of the nitroxide 4-hydroxy-2,2,6,6-tetramethylpiperidin-1-yloxy]
[4]; 10 mg TEMPOL plus 100 mg ascorbic acid orally 1-3 times a day
  skin changes typical of menopause: yet to develop the skin changes typical of menopause
[4]; [6]
  effect on perimenopausal symptoms: disappearance of hot flashes, sweating, and discomfort
  time to first results of treatment: 1-2 weeks
[4]; after long-term relief, treatment stopped
  symptoms on cessation of treatment: symptoms eventually reappear on cessation of treatment
[4]; same patient, menses stopped
  perimenopausal symptoms during earlier TEMPOL-H treatment for fibrocystic disease of breast: had not presented with perimenopausal symptoms
[4]; treatment resumed after cessation
  symptoms upon resumption of treatment: symptoms disappear
[5]
  efficacy in fibrocystic disease of breast: effective
